Data as given in patent US9045445B2, “Glycine transporter-1 inhibitors, methods of making them, and uses thereof” (Albany Molecular Research, Inc., priority 2010, dated 2015).
Where a name gives a salt, the structure may show the parent alone.

How the values were obtained:
[1] = molecular target: T1, glycine transporter-2 (GlyT-2) (Homo sapiens, UniProt Q9Y345); assay: [14C]glycine uptake assay in HEK-GlyT-2 transfected cells; type: cell-based; conditions: HEK-GlyT-2 cells
T1 construct: expressed in transfected cells
T1 sequence (Q9Y345 1-797): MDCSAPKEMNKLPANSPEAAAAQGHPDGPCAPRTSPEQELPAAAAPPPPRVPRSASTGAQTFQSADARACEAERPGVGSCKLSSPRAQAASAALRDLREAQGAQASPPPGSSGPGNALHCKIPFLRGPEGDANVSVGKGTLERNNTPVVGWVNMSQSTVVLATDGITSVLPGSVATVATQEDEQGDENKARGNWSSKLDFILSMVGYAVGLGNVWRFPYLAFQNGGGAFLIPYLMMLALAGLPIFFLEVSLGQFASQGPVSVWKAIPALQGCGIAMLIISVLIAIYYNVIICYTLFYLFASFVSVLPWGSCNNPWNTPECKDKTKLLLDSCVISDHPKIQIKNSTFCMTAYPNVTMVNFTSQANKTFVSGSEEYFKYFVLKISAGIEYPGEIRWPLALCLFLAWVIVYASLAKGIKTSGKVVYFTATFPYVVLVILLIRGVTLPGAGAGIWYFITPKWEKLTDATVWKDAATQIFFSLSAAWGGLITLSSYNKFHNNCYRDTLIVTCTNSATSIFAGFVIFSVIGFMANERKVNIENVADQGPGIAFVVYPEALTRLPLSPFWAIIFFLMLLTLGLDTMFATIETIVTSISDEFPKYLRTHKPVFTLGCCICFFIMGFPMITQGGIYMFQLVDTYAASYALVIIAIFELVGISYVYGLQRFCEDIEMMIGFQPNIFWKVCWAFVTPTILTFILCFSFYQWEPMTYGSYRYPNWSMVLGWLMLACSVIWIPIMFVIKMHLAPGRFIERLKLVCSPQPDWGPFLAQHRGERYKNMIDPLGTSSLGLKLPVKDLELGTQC

[2] = molecular target: T2, glycine transporter-1 (GlyT-1) (Homo sapiens, UniProt P48067); assay: [14C]glycine uptake assay in JAR cells endogenously expressing GlyT-1 (scintillation proximity); type: cell-based; conditions: JAR cells, [14C]glycine 5 μM, 3 hour incubation; read-out: GlyT-1 IC50
T2 construct: JAR cells (ATCC#HTB-144), which endogenously express GlyT-1; host or cells: JAR human choriocarcinoma cells
T2 sequence (P48067 1-706): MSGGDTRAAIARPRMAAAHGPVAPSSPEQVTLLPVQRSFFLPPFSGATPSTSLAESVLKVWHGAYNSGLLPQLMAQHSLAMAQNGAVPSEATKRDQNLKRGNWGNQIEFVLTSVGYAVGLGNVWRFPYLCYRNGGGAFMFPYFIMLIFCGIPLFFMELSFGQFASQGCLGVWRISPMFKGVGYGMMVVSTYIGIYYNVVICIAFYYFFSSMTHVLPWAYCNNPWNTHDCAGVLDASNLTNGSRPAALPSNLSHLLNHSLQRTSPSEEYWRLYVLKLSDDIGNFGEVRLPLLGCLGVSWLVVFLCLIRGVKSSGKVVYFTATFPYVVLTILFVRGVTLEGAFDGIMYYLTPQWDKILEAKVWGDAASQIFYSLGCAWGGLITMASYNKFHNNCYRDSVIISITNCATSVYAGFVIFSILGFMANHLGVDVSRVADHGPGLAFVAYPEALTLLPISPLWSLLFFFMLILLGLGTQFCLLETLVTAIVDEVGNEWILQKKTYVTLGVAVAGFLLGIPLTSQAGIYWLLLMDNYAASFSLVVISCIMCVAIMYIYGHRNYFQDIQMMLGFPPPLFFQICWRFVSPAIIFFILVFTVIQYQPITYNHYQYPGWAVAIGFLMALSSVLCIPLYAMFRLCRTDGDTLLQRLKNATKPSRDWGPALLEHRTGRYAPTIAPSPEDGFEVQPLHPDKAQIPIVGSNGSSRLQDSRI
Summary of the method: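 IC50 comes from a four-parameter fit of nine-point, duplicate curves measuring inhibition of 5 μM [14C]glycine uptake, read by scintillation proximity after 3 h at 37 °C. Cells are human JAR, which express GlyT-1 endogenously, given 10 min compound pre-treatment in pH 7.4 buffer with 5 mM alanine and 0.75% DMSO.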

Structure (SMILES)	IC50 [1] [nM]	IC50 [2] [nM]
Cn1cnc(S(=O)(=O)N2CCN(C3(CNC(=O)c4ccc(F)cc4Cl)CCCCC3)CC2)c1 [compound 101, 2-Chloro-4-fluoro-N-((1-(4-(1-methyl-1H-imidazol-4-ylsulfonyl)piperazin-1-yl)cyclohexyl)methyl) benzamide Hydrochloride]	> 75000	2
Cc1cc(F)ccc1C(=O)NCC1(N2CCN(S(=O)(=O)c3cn(C)cn3)CC2)CCCCC1 [compound 102, 4-Fluoro-2-methyl-N-((1-(4-(1-methyl-1H-imidazol-4-ylsulfonyl)piperazin-1-yl)cyclohexyl)methyl) benzamide Hydrochloride]	> 75000	10
COc1cc(F)cc(C)c1C(=O)NCC1(N2CCN(S(=O)(=O)c3cn(C)cn3)CC2)CCCC1 [compound 103, 4-Fluoro-2-methoxy-6-methyl-N-((1-(4-(1-methyl-1H-imidazol-4-ylsulfonyl)piperazin-1-yl)cyclopentyl)methyl) benzamide Hydrochloride]	> 75000	45
Cn1cnc(S(=O)(=O)N2CCN(C3(CNC(=O)c4c(F)cccc4F)CCCCCC3)CC2)c1 [compound 107, 2,6-Difluoro-N-((1-(4-(1-methyl-1H-imidazol-4-ylsulfonyl)piperazin-1-yl)cycloheptyl)methyl) benzamide Hydrochloride]	> 75000	9
Cn1cc(S(=O)(=O)N2CCN(C3(CNC(=O)c4ccc(Cl)cc4Cl)CCCC3)CC2)nn1 [compound 110, 2,4-Dichloro-N-((1-(4-(1-methyl-1H-1,2,3-triazol-4-ylsulfonyl)piperazin-1-yl)cyclopentyl)methyl) benzamide Hydrochloride]	> 75000	27
Cn1cc(S(=O)(=O)N2CCN(C3(CNC(=O)c4ccc(F)cc4F)CCCC3)CC2)nn1 [compound 111, 2,4-Difluoro-N-((1-(4-(1-methyl-1H-1,2,3-triazol-4-ylsulfonyl)piperazin-1-yl)cyclopentyl)methyl) benzamide Hydrochloride]	> 75000	242
COc1cc(F)cc(C)c1C(=O)NCC1(N2CCN(S(=O)(=O)c3cn(C)nn3)CC2)CCCC1 [compound 112, 4-Fluoro-2-methoxy-6-methyl-N-((1-(4-(1-methyl-1H-1,2,3-triazol-4-ylsulfonyl)piperazin-1-yl)cyclopentyl)methyl) benzamide Hydrochloride]	> 75000	14
COc1cc(F)cc(SC)c1C(=O)NCC1(N2CCN(S(=O)(=O)c3cn(C)nn3)CC2)CCCC1 [compound 113, 4-Fluoro-2-methoxy-N-((1-(4-(1-methyl-1H-1,2,3-triazol-4-ylsulfonyl)piperazin-1-yl)cyclopentyl)methyl)-6-(methylthio)benzamide Hydrochloride]	> 75000	3
Cn1cc(S(=O)(=O)N2CCN(C3(CNC(=O)c4c(F)cccc4F)CCCCC3)CC2)nn1 [compound 114, 2,6-Difluoro-N-((1-(4-(1-methyl-1H-1,2,3-triazol-4-ylsulfonyl)piperazin-1-yl)cyclohexyl)methyl) benzamide Hydrochloride]	> 75000	2
CCCS(=O)(=O)N1CCN(C2(CNC(=O)c3c(N)cccc3Cl)CCN(C)CC2)CC1 [compound 116, 2-Amino-6-chloro-N-((1-methyl-4-(4-(propylsulfonyl)piperazin-1-yl)piperidin-4-yl)methyl)benzamide Hydrochloride]	> 75000	500
CC1CN(C2(CNC(=O)c3c(F)cccc3F)CCCCC2)CCN1S(=O)(=O)CC1CC1 (centres unmarked) [compound 117, N-((1-(4-(Cyclopropylmethyl-sulfonyl)-3-methylpiperazin-1-yl)cyclohexyl)methyl)-2,6-difluorobenzamide Hydrochloride]	> 75000	1070

Now from value to compound:

IC50 [1] [nM]	IC50 [2] [nM]	Structure (SMILES)
> 75000	346	Cn1cnc(S(=O)(=O)N2CCN(C3(CNC(=O)c4c(F)cccc4F)CCCC3)CC2)c1 [compound 104, 2,6-Difluoro-N-((1-(4-(1-methyl-1H-imidazol-4-ylsulfonyl)piperazin-1-yl)cyclopentyl)methyl) benzamide Hydrochloride]
> 75000	102	Cn1cnc(S(=O)(=O)N2CCN(C3(CNC(=O)c4ccc(Cl)cc4Cl)CCCC3)CC2)c1 [compound 105, Hydrochloride]
> 75000	5	Cn1cnc(S(=O)(=O)N2CCN(C3(CNC(=O)c4c(Cl)cccc4Cl)CCCCCC3)CC2)c1 [compound 106, 2,6-Dichloro-N-((1-(4-(1-methyl-1H-imidazol-4-ylsulfonyl)piperazin-1-yl)cycloheptyl)methyl) benzamide Hydrochloride]
> 75000	55	Cn1cc(S(=O)(=O)N2CCN(C3(CNC(=O)c4c(F)cccc4F)CCCC3)CC2)nn1 [compound 108, 2,6-Difluoro-N-((1-(4-(1-methyl-1H-1,2,3-triazol-4-ylsulfonyl)piperazin-1-yl)cyclopentyl)methyl) benzamide Hydrochloride]
> 75000	31	Cn1cc(S(=O)(=O)N2CCN(C3(CNC(=O)c4c(Cl)cccc4Cl)CCCC3)CC2)nn1 [compound 109, 2,6-Dichloro-N-((1-(4-(1-methyl-1H-l,2,3-triazol-4-ylsulfonyl)piperazin-1-yl)cyclopentyl)methyl) benzamide Hydrochloride]
> 75000	661	CCCS(=O)(=O)N1CCN(C2(CNC(=O)c3c(N)cccc3Cl)Cc3ccccc3C2)CC1 [compound 115, 2-Amino-6-chloro-N-((2-(4-(propylsulfonyl)piperazin-1-yl)-2,3-dihydro-1H-inden-2-yl)methyl)benzamide Hydrochloride]
> 45000	276	CCCS(=O)(=O)N1CCN(C2(CNC(=O)c3c(Cl)cccc3Cl)CCOCC2)CC1 [compound 119, 2,6-Dichloro-N-((4-(4-(propylsulfonyl)piperazin-1-yl)tetrahydro-2H-pyran-4-yl)methyl)benzamide Hydrochloride]
41300	175	CCCS(=O)(=O)N1CCN(C2(CNC(=O)c3c(C)cccc3C)CCOCC2)CC1 [compound 120, 2,6-Dimethyl-N-((4-(4-(propylsulfonyl)piperazin-1-yl)tetrahydro-2H-pyran-4-yl)methyl)benzamide Hydrochloride]
> 45000	191	CCCS(=O)(=O)N1CCN(C2(CNC(=O)c3c(C)cc(F)cc3OC)CCOCC2)CC1 [compound 121, 4-Fluoro-2-methoxy-6-methyl-N-((4-(4-(propylsulfonyl)piperazin-1-yl)tetrahydro-2H-pyran-4-yl)methyl)benzamide Hydrochloride]
> 75000	95	CCCS(=O)(=O)N1CCN(C2(CNC(=O)c3c(OC)cc(F)cc3SC)CCOCC2)CC1 [compound 122, 4-Fluoro-2-methoxy-6-(methylthio)-N-((4-(4-(propylsulfonyl)piperazin-1-yl)tetrahydro-2H-pyran-4-yl)methyl)benzamide Hydrochloride]
> 75000	418	CCCS(=O)(=O)N1CCN(C2(CNC(=O)c3c(F)cccc3OC)CCOCC2)CC1 [compound 123, 2-Fluoro-6-methoxy-N-((4-(4-(propyl-sulfonyl)piperazin-1-yl)tetrahydro-2H-pyran-4-yl)methyl)benzamide Hydrochloride]
